Measurements from patent US12384770B2, “Heterocyclic compound” (Takeda Pharmaceutical Company Limited, priority 2019, dated 2025).
“Also recorded” adds a separate entry of the source.

Assays:
HDAC6 enzyme = target: T1, HDAC6 enzyme (Homo sapiens, UniProt Q9UBN7); experiment: HDAC6 enzyme inhibitory assay (HDAC-Glo I/II Assay kit); type: biochemical; conditions: wells without enzyme = 100% inhibition; for inhibition at 10 µM: read-out: HDAC6 inhibitory rate (%) (10 μM)
T1 construct: HDAC6 enzyme prepared by transducing full length HDAC6 gene into Sf-9 insect cells; GST; purchased SignalChem; host or cells: Sf-9 insect cells
T1 sequence (Q9UBN7 1-1215): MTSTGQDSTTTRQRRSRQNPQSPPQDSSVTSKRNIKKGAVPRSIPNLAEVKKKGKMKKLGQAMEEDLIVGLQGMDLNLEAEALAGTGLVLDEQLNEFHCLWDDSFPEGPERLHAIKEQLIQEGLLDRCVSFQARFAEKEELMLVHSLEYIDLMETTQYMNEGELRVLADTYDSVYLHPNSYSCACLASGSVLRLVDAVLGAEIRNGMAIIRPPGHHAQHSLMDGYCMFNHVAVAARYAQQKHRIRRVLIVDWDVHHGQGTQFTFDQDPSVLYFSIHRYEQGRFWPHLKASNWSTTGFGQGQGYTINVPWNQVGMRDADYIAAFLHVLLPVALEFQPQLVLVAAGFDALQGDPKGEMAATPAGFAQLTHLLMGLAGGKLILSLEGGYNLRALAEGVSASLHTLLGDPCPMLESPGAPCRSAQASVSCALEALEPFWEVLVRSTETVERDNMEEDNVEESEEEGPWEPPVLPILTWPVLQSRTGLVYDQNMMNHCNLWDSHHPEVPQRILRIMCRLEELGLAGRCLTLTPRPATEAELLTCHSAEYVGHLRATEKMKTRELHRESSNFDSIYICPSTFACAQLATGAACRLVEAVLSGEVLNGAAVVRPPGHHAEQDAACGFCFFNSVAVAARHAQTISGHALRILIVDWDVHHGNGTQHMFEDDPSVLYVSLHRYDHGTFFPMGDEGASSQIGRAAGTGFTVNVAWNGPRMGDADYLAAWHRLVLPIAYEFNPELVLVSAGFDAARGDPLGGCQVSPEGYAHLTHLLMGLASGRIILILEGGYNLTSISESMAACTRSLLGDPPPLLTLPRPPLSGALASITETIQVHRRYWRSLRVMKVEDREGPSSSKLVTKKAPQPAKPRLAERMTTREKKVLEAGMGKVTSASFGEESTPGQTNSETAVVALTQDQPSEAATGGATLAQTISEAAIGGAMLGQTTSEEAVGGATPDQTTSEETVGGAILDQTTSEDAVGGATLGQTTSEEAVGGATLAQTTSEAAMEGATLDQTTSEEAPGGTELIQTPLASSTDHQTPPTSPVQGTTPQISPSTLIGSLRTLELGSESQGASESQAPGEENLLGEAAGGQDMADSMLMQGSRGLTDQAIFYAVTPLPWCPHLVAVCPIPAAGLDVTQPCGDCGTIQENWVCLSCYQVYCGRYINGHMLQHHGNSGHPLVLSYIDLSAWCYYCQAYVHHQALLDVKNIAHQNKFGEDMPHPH
Method in brief: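 Full-length GST-purified HDAC6 from Sf-9 cells preincubated with compound 60 min at room temperature in Tris-HCl pH 7.5 buffer with MgCl2, KCl, NaCl, glutathione, Tween-20. Substrate-developer reaction 20 min, luminescence read; no-enzyme wells set as 100% inhibition.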

[1] = test system: acetylated tubulin in mouse brain; experiment: Increase in acetylated tubulin in brain (hippocampus, ELISA); type: in vivo; conditions: male C57BL/6J mouse, oral, 4 h after administration
Source text: A drug was suspended in 0.5% methyl cellulose to prepare a suspension for administration, having a concentration shown in Table 3. The suspension was orally administered into 8 to 10-week old male C57BL/6J mouse, and after the passage of the time shown in Table 3, the brain was taken out, and hippocampus was obtained. The hippocampus was homogenized under RIPA extract (FUJIFILM Wako Pure Chemical Corporation) to which protease inhibitor (Thermo Fisher Scientific) and phosphatase inhibitor (Thermo Fisher Scientific) were added, and centrifuged in 15,000 g for 15 min to prepare a protein extract. The acetylated tubulin and total tubulin in the extract were detected by the following ELISA method. Tubulin antibody (Sigma) was immobilized on 96-well plate (Microlite2+, Thermo Fisher Scientific), and the plate was stored at 4° C. Next day, the plate was washed four times with PBS-T, and blocking buffer (1% BSA/PBS-T) was added thereto, and the reaction was carried out at 37° C. for 2 hr. The plate was washed four times with PBS-T, and the above-mentioned protein extract was added thereto to capture the tubulin on the antibody. The plate was stored at 37° C. for 2 hr, and washed four times with PBS-T. Anti-acetylated tubulin antibody or total tubulin antibody (Cell Signaling Technology), each diluted with blocking buffer, was added thereto, and the reaction was carried out at 37° C. for 1 hr. […] The plate was washed, HRP substrate was added thereto, and the luminescence was measured using a plate reader. The acetylated tubulin and total tubulin were quantified from logistics curve based on dilution series using the mouse hippocampus tissue extract, and the amount of the acetylated tubulin relative to the total tubulin was calculated, and evaluated as an relative tubulin acetylation level. […] After F test for vehicle group and drug group, the significant difference between the two groups was analyzed by Student t-test or Welch test (indicated as *p<0.05, **p<0.01, n.s.: not significant). […]

[2] = test system: P301S mutant human tau (4R1N) Tg mouse; experiment: Cognitive improvement action in neurodegenerative disease model mouse (novel object recognition test); type: in vivo; conditions: once a day for three months
Experimental: A drug was suspended in 0.5% methyl cellulose to prepare a suspension for administration. The suspension was repeatedly administered into six month-old male P301S mutant human tau (4R1N) Tg mouse once a day for three months, and novel object recognition test was performed by the following method. The test is comprised of memory acquisition trial of object on the first day, and memory retention trial of familiar object and novel object on the second day. Drug was administered into the mouse 1 hr before the trials on both days. For acquisition trial, The mouse was put in a test box (30 cm×30 cm×25 cm) in which two identical objects were placed, and contact frequency and contact duration with the objects for 5 min were measured under 50 lux. Herein, the contact means a behavior getting a sniff of an object (Sniffing). Next day, one of the objects was replaced with new object, and contact frequency and contact duration with each object for 5 min were measured. Novelty discrimination index (NDI) as an index of cognitive function was calculated by novel object […]/(novel object contact duration+familiar object contact duration) %. […] After F test for vehicle administration wild-type group and vehicle administration Tg group, the significant difference between the two groups was analyzed by Student t-test or Welch test (indicated as **p<0.01). […]

tauopathy mouse model = conditions: cited from earlier work

Row | inhibition at 10 µM (HDAC6 enzyme) [%] | HDAC6 inhibitory rate (%) (10 μM) (HDAC6 enzyme; 10 µM) | Compound | relative tubulin acetylation level (acetylated tubulin relative to total tubulin) [1] | cognitive improvement action (novelty discrimination, relative exploration time) [2] | acetylation of tubulin (tauopathy mouse model) | therapeutic effectiveness (tauopathy mouse model)
1 | 101 |  | O=C1c2cc(-c3nnc(C(F)F)o3)ccc2CN1[C@H](c1ccccn1)[C@@H](O)c1ccccn1 [Example 1, 6-[5-(difluoromethyl)-1,3,4-oxadiazol-2-yl]-2-[(1R,2R)-2-hydroxy-1,2-di(pyridin-2-yl)ethyl]-2,3-dihydro-1H-isoindol-1-one] | increase in significant tubulin acetylation level; also recorded: increase in acetylated tubulin | cognitive improvement action |  | 
2 |  |  | CN1CCc2c(c3ccccc3n2Cc2ccc(C(=O)NO)cc2)C1 [Tubastatin A] |  |  | increases acetylation of tubulin | shows therapeutic effectiveness
3 | 101 |  | O=C1c2cc(-c3nnc(C(F)F)o3)ccc2CN1[C@H](c1ccccn1)[C@@H](O)c1ccc(F)cn1 [Example 3, 6-[5-(difluoromethyl)-1,3,4-oxadiazol-2-yl]-2-[(1R,2R)-2-(5-fluoropyridin-2-yl)-2-hydroxy-1-(pyridin-2-yl)ethyl]-2,3-dihydro-1H-isoindol-1-one] | increase in significant tubulin acetylation level; also recorded: increase in acetylated tubulin | cognitive improvement action |  | 
4 |  | 99 | O=C1c2cc(-c3nnc(C(F)F)o3)ccc2CN1[C@H](c1ccc(F)cn1)[C@@H](O)c1ccc(F)cn1 [Example 5, 2-[(1R,2R)-1,2-bis(5-fluoropyridin-2-yl)-2-hydroxyethyl]-6-[5-(difluoromethyl)-1,3,4-oxadiazol-2-yl]-2,3-dihydro-1H-isoindol-1-one] | increase in significant tubulin acetylation level; also recorded: increase in acetylated tubulin |  |  | 
